Experimental data: patent US20240368163A1, “COMPOUNDS AND METHODS FOR MODULATING SPLICING” (REMIX THERAPEUTICS INC., priority 2021, published 2024)

Legend:
Assay type in all cases: cell-based, human
HTT [1] = assay: HiBiT protein abundance assay, HTT; conditions: Homo sapiens, K562, 24 h, Table 13A, modified K562 cells
In short: (§1)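 Luminescent readout from lytic HiBiT/LgBiT complementation reports endogenous tagged protein level in engineered K562 cells. Compounds dosed 24 h, top 10 μM final, 3-fold steps, 10 points. IC50 is the concentration giving 50% of untreated-control abundance, from 4-parameter logistic fit.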

Target C [2] = assay: Splicing RT-qPCR panel, Target C canonical junction (CJ) mRNA; conditions: Homo sapiens, RT-qPCR panel, canonical junction mRNA; compound concentration having 50% response in CJ decrease; read-out: Target C IC50 (decrease in CJ mRNA levels)
Procedure: (§2) Compounds described herein were used to modulate RNA transcript abundance in cells. The expression of a target mRNA was measured by detecting the formation of an exon-exon junction in the canonical transcript (CJ). A compound mediated exon-inclusion event was detected by observing an increase in formation of a new junction with an alternative exon (AJ). Real-time qPCR assays were used to detect these splicing switches and interrogate the potency of various compounds towards different target genes. A high-throughput real time quantitative PCR (RT-qPCR) assay was developed to measure these two isoforms of the mRNA (CJ and AJ) for exemplary genes, such as HTT, SMN2, and MYB, together with a control housekeeping gene, GAPDH or GUSB or PPIA, used for normalization. Briefly, the A673 or K562 cell line was treated with various compounds described herein (e.g., compounds of Formula (I)). After treatment, the levels of the HTT, MYB, or SMN2 mRNA targets were determined from each sample of cell lysate by cDNA synthesis followed by qPCR.
(§3) The A673 cell line was cultured in DMEM with 10% FBS. Cells were diluted with full growth media and plated in a 96-well plate (15,000 cells in 100 ul media per well). The plate was incubated at 37° C. with 5% CO2 for 24 hours to allow cells to adhere. An 11-point 3-fold serial dilution of the compounds was made in DMSO then diluted in media in an intermediate plate. Compounds were transferred from the intermediate plate to the cell plate with the top dose at a final concentration of 10 uM in the well. Final DMSO concentration was kept at or below 0.25%. The cell plate was returned to the incubator at 37° C. with 5% CO2 for an additional 24 hours.
(§4) The K562 cell line was cultured in IMDM with 10% FBS. For K562, cells were diluted with full growth media and plated in either a 96-well plate (50,000 cells in 50 uL media per well) or a 384-well plate (8,000-40,000 cells in 45 uL media per well). An 11-point 3-fold serial dilution of the compounds were made in DMSO then diluted in media in an intermediate plate. Compound was transferred from the intermediate plate to the cell plate with the top dose at a final concentration of 10 uM in the well. Final DMSO concentration was kept at or below 0.25%. Final volume was 100 uL for 96-well plate and 50 uL for 384-well plate. The cell plate was then placed in an incubator at 37° C. with 5% CO2 for 24 hours.
(§5) The cells were then gently washed with 50 uL-100 uL cold PBS before proceeding to addition of lysis buffer. 30 uL-50 μL of room temperature lysis buffer with DNAse I (and optionally RNAsin) was added to each well. Cells were shaken/mixed thoroughly at room temperature for 5-10 minutes for lysis to take place and then 3 uL-5 μL of room temperature stop solution was added and wells were shaken/mixed again. After 2-5 minutes, the cell lysate plate was transferred to ice for RT-qPCR reaction setup. The lysates could also be frozen at −80° C. for later use.
(§6) In some cases, a direct lysis buffer was used. An appropriate volume of 3× lysis buffer (10 mM Tris, 150 mM NaCl, 1.5%-2.5% Igepal and 0.1-1 U/uL RNAsin, pH 7.4) was directly added to either K562 or A673 cells in media and mixed by pipetting 3 times. The plates were then incubated at room temperature with shaking/rocking for 20-50 minutes to allow for lysis to take place. After this time, the cell lysate plate was transferred to ice to set up for the RT-qPCR reactions. The lysates could also be frozen at −80° C. for later use.
(§7) To set up 10 uL RT-qPCR reactions, cell lysates were transferred to 384-well qPCR plates containing the master mix according to the table below. The plates were sealed, gently vortexed, and spun down before the run. The volumes were adjusted accordingly in some instances where the reaction was carried in 20 μL. The table below summarizes the components of the RT-qPCR reactions:
(§8) The RT-qPCR reaction was performed using a QuantStudio (ThermoFisher) under the following fast cycling conditions. […]

HTT [3] = assay: Splicing RT-qPCR assay, HTT mRNA canonical junction (CJ) and alternative junction (AJ); conditions: Homo sapiens; for AC50: increase in AJ mRNA
Procedure: as §2, §3, §4, §5, §6, §7, §8

Target C [4] = assay: HiBiT protein abundance assay, Target C; conditions: Homo sapiens, K562, 24 h, Table 13A, modified K562 cells
In short: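 Knock-in HiBiT clones, 10000/well; 10-pt 3-fold titration, top 10 μM final; DMSO ≤0.25%; 24 h, 37 °C, 5% CO2. Lytic HiBiT luminescence readout. 4PL fit, IC50 = concentration giving 50% of untreated abundance.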

MYB [5] = assay: Splicing RT-qPCR assay, MYB mRNA canonical junction (CJ) and alternative junction (AJ); conditions: Homo sapiens; for AC50: increase in AJ mRNA
In short: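 Splice switching is measured in A673 or K562 cells after 24 h compound exposure (maximum 10 uM, 3-fold steps). Canonical and alternative junction mRNA levels are quantified by RT-qPCR relative to housekeeper and DMSO.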

MYB [6] = assay: HiBiT protein abundance assay, MYB; conditions: Homo sapiens, K562, 24 h, Table 13A, modified K562 cells
In short: as §1

SMN2 = assay: Splicing RT-qPCR panel, SMN2 canonical junction (CJ) mRNA; conditions: Homo sapiens, RT-qPCR panel, canonical junction mRNA; compound concentration having 50% response in CJ decrease; read-out: SMN2 IC50 (decrease in CJ mRNA levels)
Procedure: as §2, §3, §4, §5, §6, §7, §8

[7] = 24 h, decrease in CJ mRNA, A673 or K562 cells, 24 hours treatment, RT-qPCR, read-out: HTT CJ IC50
[8] = 24 h, A673 or K562 cells, 24 hours treatment, RT-qPCR
[9] = RT-qPCR panel, canonical junction mRNA, compound concentration having 50% response in CJ decrease, read-out: HTT IC50 (decrease in CJ mRNA levels)
[10] = 24 h, decrease in CJ mRNA, A673 or K562 cells, 24 hours treatment, RT-qPCR, read-out: MYB CJ IC50
[11] = RT-qPCR panel, canonical junction mRNA, compound concentration having 50% response in CJ decrease, read-out: MYB IC50 (decrease in CJ mRNA levels)

Structure (SMILES) | IC50 (HTT [1]) [µM] | IC50 (Target C [2]) [µM] | IC50 (HTT [3]; [7]) [µM] | AC50 (HTT [3]; [8]) [µM] | IC50 (HTT [3]; [9]) [µM] | IC50 (Target C [4]) [µM] | IC50 (MYB [5]; [10]) [µM] | AC50 (MYB [5]; [8]) [µM] | IC50 (MYB [5]; [11]) [µM] | IC50 (MYB [6]) [µM] | IC50 (SMN2) [µM]
Cc1cc(-c2ccc(-c3ccc(O[C@H]4C[C@@H]5CC(F)(F)[C@H](C4)N5)nn3)c3[nH]ncc23)ccn1 (single isomer, unassigned) [Compound 370] | 1 to 10 | 1 to 10 | > 10 | > 10 | > 10 | > 10 | > 10 | > 10 | > 10 | 1 to 10 | 1 to 10
FC1(F)C[C@@H]2C[C@@H](Oc3ccc(-c4ccc(-c5cn[nH]c5)c5cn[nH]c45)nn3)C[C@H]1N2 (stereo in doubt) [Compound 373, 7-[6-({6,6-difluoro-8-azabicyclo[3.2.1]octan-3-yl}oxy)pyridazin-3-yl]-4-(1H-pyrazol-4-yl)-1H-indazole] | 0.1 to 1 | 1 to 10 | 0.1 to 1 | 0.1 to 1 | 0.1 to 1 | 1 to 10 | 1 to 10 | 0.1 to 1 | 1 to 10 | 1 to 10 | 0.1 to 1
CN(c1ccc(-c2ccc(-c3cn[nH]c3)c3cn[nH]c23)nn1)[C@@H]1C[C@H]2CC(F)(F)[C@@H](C1)N2 (stereo in doubt) [Compound 376, 6,6-difluoro-N-methyl-N-{6-[4-(1H-pyrazol-4-yl)-1H-indazol-7-yl]pyridazin-3-yl}-8-azabicyclo[3.2.1]octan-3-amine] | 0.1 to 1 | 0.1 to 1 | – | 0.1 to 1 | < 0.1 | 0.1 to 1 | 0.1 to 1 | 0.1 to 1 | 0.1 to 1 | 0.1 to 1 | < 0.1
c1n[nH]cc1-c1ccc(-c2ccc(O[C@@H]3C[C@H]4CC[C@@H](C3)N4)nn2)c2[nH]ncc12 [Compound 142] | < 0.1 | 0.1 to 1 | 0.1 to 1 | 0.1 to 1 | 0.1 to 1 | < 0.1 | 0.1 to 1 | 0.1 to 1 | 0.1 to 1 | < 0.1 | < 0.1
CN(c1ccc(-c2ccc(-c3cn[nH]c3)c3cn[nH]c23)nn1)[C@H]1C[C@]2(C)CC[C@](C)(C1)N2 [Compound 146] | < 0.1 | < 0.1 | – | < 0.1 | < 0.1 | < 0.1 | 0.1 to 1 | 0.1 to 1 | 0.1 to 1 | < 0.1 | < 0.1
CN(c1ccc(-c2ccc(-n3cccn3)c3nc[nH]c23)nn1)[C@@H]1C[C@H]2CC[C@@H](C1)N2 [Compound 170] | 1 to 10 | > 10 | 1 to 10 | 1 to 10 | 1 to 10 | > 10 | 1 to 10 | 1 to 10 | 1 to 10 | 1 to 10 | 0.1 to 1
CN(c1ccc(-c2ccc(-c3ccn(C)c(=O)c3)c3scnc23)nn1)C1CC(C)(C)NC(C)(C)C1 [Compound 174] | 0.1 to 1 | > 10 | 1 to 10 | 1 to 10 | 1 to 10 | > 10 | 1 to 10 | 1 to 10 | 1 to 10 | 1 to 10 | 0.1 to 1
CN(c1ccc(-c2ccc(-c3cnn(C)c3)c3scnc23)nn1)C1CC(C)(C)NC(C)(C)C1 [Compound 175] | 1 to 10 | > 10 | > 10 | 1 to 10 | > 10 | 1 to 10 | > 10 | 1 to 10 | > 10 | 1 to 10 | 1 to 10
Cc1[nH]ncc1-c1ccc(-c2ccc(N(C)C3CC(C)(C)NC(C)(C)C3)nn2)c2ncsc12 [Compound 176] | 1 to 10 | > 10 | > 10 | > 10 | > 10 | 1 to 10 | > 10 | > 10 | > 10 | 1 to 10 | > 10
